Reference: US10604512B2, “3-(1H-indol-2-yl)-1H-indazoles and therapeutic uses thereof” (Samumed, LLC, priority 2015, dated 2020)

Assays:
[1] = test system: Wnt activity (Sp5-Luc reporter, TCF/LEF binding sites) in SW480 colon carcinoma cells; assay: Screening assay for Wnt activity: Sp5-Luc reporter gene assay in stably transduced SW480 colon carcinoma cells; format: cell-based; details: Homo sapiens; for EC50: overnight incubation, 10-point curve from 10 μM
Outline: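 SW480 cells stably transduced with a luciferase reporter driven by an Sp5 promoter of eight TCF/LEF sites were plated at 4,000 cells/well in 1% FBS medium. They were exposed overnight at 37° C to a 10-point 1:3 dilution series from 10 μM (0.1% DMSO). Luminescence was normalized to DMSO for four-parameter EC50, or percent inhibition at 10 μM.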

[2] = test system: Primary human fibroblasts derived from IPF patients (LL29 cells) treated with TGF-β1; assay: Inhibition of the fibrotic process: αSMA staining in TGF-β1-treated primary human fibroblasts from IPF patients (LL29 cells); format: cell-based; details: Fibroblast, 96 h; for EC50: % αSMA-positive LL29 cells, TGF-β1 20 ng/mL, 4 days; for inhibition at 10 µM: given where EC50 >10 μM, αSMA, LL29 cells, TGF-β1, 4 days, read-out: percent inhibition at 10 μM
Outline: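 LL29 IPF-patient fibroblasts in 1% FBS stimulated with TGF-β1 (20 ng/mL) and compound (10 μM–1.87 nM, 0.1% DMSO) for 4 days at 37 °C. SYTOX-positive cells excluded; % αSMA-positive cells imaged, normalized to TGF-β1/DMSO wells; EC50 by nonlinear regression, else % inhibition at 10 μM.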

Compound | inhibition at 10 µM ([1]; at 10 μM, given where EC50 >10 μM, read-out: percent inhibition at 10 μM) [%] | EC50 [1] [nM] | EC50 [2] [nM] | inhibition at 10 µM [2] [%]
c1cc(-c2ccncc2)c2cc(-c3n[nH]c4ccc(-c5ccncc5)cc34)[nH]c2c1 [Compound 130, 5-(Pyridin-4-yl)-3-(4-(pyridin-4-yl)-1H-indol-2-yl)-1H-indazole] | 52.8 | > 10000 | 1650 | –
O=C(Nc1cncc(-c2ccc3[nH]nc(-c4cc5c(-c6ccncc6)cccc5[nH]4)c3c2)c1)C1CC1 [Compound 132, N-(5-(3-(4-(Pyridin-4-yl)-1H-indol-2-yl)-1H-indazol-5-yl)pyridin-3-yl) cyclopropanecarboxamide] | – | 135 | 76 | –
O=C(Nc1cncc(-c2ccc3[nH]nc(-c4cc5c(-c6ccncc6)cccc5[nH]4)c3c2)c1)C1CCCCC1 [Compound 135, N-(5-(3-(4-(Pyridin-4-yl)-1H-indol-2-yl)-1H-indazol-5-yl)pyridin-3-yl) cyclohexanecarboxamide] | – | 4400 | > 10000 | 10.7
c1ccc(-c2ccc3[nH]nc(-c4cc5c(-c6ccncc6)cccc5[nH]4)c3c2)nc1 [Compound 140, 5-(Pyridin-2-yl)-3-(4-(pyridin-4-yl)-1H-indol-2-yl)-1H-indazole] | – | 3560 | 1260 | –
Nc1cncc(-c2ccc3[nH]nc(-c4cc5c(-c6ccccn6)cccc5[nH]4)c3c2)c1 [Compound 143, 5-(3-(4-(Pyridin-2-yl)-1H-indol-2-yl)-1H-indazol-5-yl)pyridin-3-amine] | – | 60 | 82 | –
Cc1ccncc1-c1ccc2[nH]nc(-c3cc4c(-c5ccccn5)cccc4[nH]3)c2c1 [Compound 145, 5-(4-Methylpyridin-3-yl)-3-(4-(pyridin-2-yl)-1H-indol-2-yl)-1H-indazole] | – | 1900 | 2940 | –
O=C(Nc1cncc(-c2ccc3[nH]nc(-c4cc5c(-c6ccccn6)cccc5[nH]4)c3c2)c1)c1ccccc1 [Compound 151, N-(5-(3-(4-(Pyridin-2-yl)-1H-indol-2-yl)-1H-indazol-5-yl)pyridin-3-yl) benzamide] | – | 150 | > 10000 | 0
c1ccc(-c2cccc3[nH]c(-c4n[nH]c5ccc(-c6cncc(CN7CCCC7)c6)cc45)cc23)nc1 [Compound 154, 3-(4-(Pyridin-2-yl)-1H-indol-2-yl)-5-(5-(pyrrolidin-1-ylmethyl)pyridin-3-yl)-1H-indazole] | – | 490 | 222 | –
c1ccc(-c2cccc3[nH]c(-c4n[nH]c5ccc(-c6ccncc6)cc45)cc23)nc1 [Compound 158, 3-(4-(Pyridin-2-yl)-1H-indol-2-yl)-5-(pyridin-4-yl)-1H-indazole] | – | 4120 | 627 | –
CCCCC(=O)Nc1cncc(-c2ccc3[nH]nc(-c4cc5c(-c6ccccn6)cccc5[nH]4)c3c2)c1 [Compound 159, N-(5-(3-(4-(Pyridin-2-yl)-1H-indol-2-yl)-1H-indazol-5-yl)pyridin-3-yl) pentanamide] | – | 1670 | > 10000 | 45.6
c1ccc(-c2cccc3[nH]c(-c4n[nH]c5ccc(-c6cncnc6)cc45)cc23)nc1 [Compound 167, 3-(4-(Pyridin-2-yl)-1H-indol-2-yl)-5-(pyrimidin-5-yl)-1H-indazole] | – | 1220 | 1200 | –
CCC(=O)Nc1cncc(-c2ccc3[nH]nc(-c4cc5c(N6CCCCC6)cccc5[nH]4)c3c2)c1 [Compound 169, N-(5-(3-(4-(Piperidin-1-yl)-1H-indol-2-yl)-1H-indazol-5-yl)pyridin-3-yl) propionamide] | – | 1400 | 1020 | –
CN(C)Cc1cncc(-c2ccc3[nH]nc(-c4cc5c(N6CCCCC6)cccc5[nH]4)c3c2)c1 [Compound 181, N,N-Dimethyl-1-(5-(3-(4-(piperidin-1-yl)-1H-indol-2-yl)-1H-indazol-5-yl)pyridin-3-yl)methanamine] | – | 575 | 4820 | –
O=C(Nc1cncc(-c2ccc3[nH]nc(-c4cc5c(N6CCCCC6)cccc5[nH]4)c3c2)c1)C1CC1 [Compound 188, N-(5-(3-(4-(Piperidin-1-yl)-1H-indol-2-yl)-1H-indazol-5-yl)pyridin-3-yl) cyclopropanecarboxamide] | – | 195 | 5790 | –
FC1(F)CCN(Cc2cncc(-c3ccc4[nH]nc(-c5cc6c(N7CCCCC7)cccc6[nH]5)c4c3)c2)C1 [Compound 194, 5-(5-((3,3-Difluoropyrrolidin-1-yl)methyl)pyridin-3-yl)-3-(4-(piperidin-1-yl)-1H-indol-2-yl)-1H-indazole] | – | 750 | 1310 | –
CN1CCN(c2cccc3[nH]c(-c4n[nH]c5ccc(-c6cncc(N)c6)cc45)cc23)CC1 [Compound 227, 5-(3-(4-(4-Methylpiperazin-1-yl)-1H-indol-2-yl)-1H-indazol-5-yl)pyridin-3-amine] | – | 474 | 4000 | –
CC(C)C(=O)Nc1cncc(-c2ccc3[nH]nc(-c4cc5c(N6CCN(C)CC6)cccc5[nH]4)c3c2)c1 [Compound 233, N-(5-(3-(4-(4-Methylpiperazin-1-yl)-1H-indol-2-yl)-1H-indazol-5-yl)pyridin-3-yl)isobutyramide] | – | 565 | 1310 | –
CN1CCN(c2cccc3[nH]c(-c4n[nH]c5ccc(-c6cncc(CN7CCCCC7)c6)cc45)cc23)CC1 [Compound 239, 3-(4-(4-Methylpiperazin-1-yl)-1H-indol-2-yl)-5-(5-(piperidin-1-ylmethyl)pyridin-3-yl)-1H-indazole] | – | 4970 | > 10000 | 21.1
CN1CCN(c2cccc3[nH]c(-c4n[nH]c5ccc(-c6cncc(NC(=O)C7CCCC7)c6)cc45)cc23)CC1 [Compound 246, N-(5-(3-(4-(4-Methylpiperazin-1-yl)-1H-indol-2-yl)-1H-indazol-5-yl)pyridin-3-yl)cyclopentanecarboxamide] | – | 1240 | 2560 | –
CN1CCN(c2cccc3[nH]c(-c4n[nH]c5ccc(-c6cncnc6)cc45)cc23)CC1 [Compound 251, 3-(4-(4-Methylpiperazin-1-yl)-1H-indol-2-yl)-5-(pyrimidin-5-yl)-1H-indazole] | – | 1420 | 3040 | –
CCC(=O)Nc1cncc(-c2ccc3[nH]nc(-c4cc5ccccc5[nH]4)c3c2)c1 [Compound 253, N-(5-(3-(1H-Indol-2-yl)-1H-indazol-5-yl)pyridin-3-yl)propionamide] | – | 160 | 2310 | –
c1cncc(-c2ccc3[nH]nc(-c4cc5ccccc5[nH]4)c3c2)c1 [Compound 256, 3-(1H-Indol-2-yl)-5-(pyridin-3-yl)-1H-indazole] | – | 18 | 9770 | –
CCNCc1cncc(-c2ccc3[nH]nc(-c4cc5ccccc5[nH]4)c3c2)c1 [Compound 258, N-((5-(3-(1H-Indol-2-yl)-1H-indazol-5-yl)pyridin-3-yl)methyl)ethanamine] | – | 415 | 235 | –
O=C(Cc1ccccc1)Nc1cncc(-c2ccc3[nH]nc(-c4cc5ccccc5[nH]4)c3c2)c1 [Compound 262, N-(5-(3-(1H-Indol-2-yl)-1H-indazol-5-yl)pyridin-3-yl)-2-phenylacetamide] | – | 1560 | > 10000 | 31.8
O=C(Nc1cncc(-c2ccc3[nH]nc(-c4cc5ccccc5[nH]4)c3c2)c1)c1ccccc1 [Compound 263, N-(5-(3-(1H-Indol-2-yl)-1H-indazol-5-yl)pyridin-3-yl)benzamide] | – | 380 | 1570 | –
